In PubChem BioAssay (NCI) one finds GI50 and TGI data, which are given here for ten compounds.

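Each compound was tested at five concentrations against cells in 96-well plates for 48 hours. GI50 = concentration required for 50% inhibition of growth. TGI denotes the concentration required for complete inhibition of growth.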

Test in all cases: NCI tumour cell line growth inhibition, 48 h
In experiment [1] the test system is HOP-92 NSCLC.
Experiment [2] deals with ACHN renal.
The subject of experiment [3] is HCT-116 colon.
Experiment [4] deals with UACC-62 melanoma.
The test system of experiment [5] is U251 CNS.
Experiment [6] concerns SNB-19 CNS.
The test system of experiment [7] is M14 melanoma.
For experiment [8], the system named is A549 NSCLC.

Turning to `Cc1ccccc1-n1c(/C=C\c2ccccn2)nc2ccccc2c1=O`, the GI50 is 3.32 µM in experiment [1]; 12.8 µM in experiment [2]; 6.87 µM in experiment [3]; 14.2 µM in experiment [4]; 11 µM in experiment [5]; 32.1 µM in experiment [6]. Moreover, the GI50 in experiment [7] was 14.2 µM; in experiment [8] it was 26 µM. Further, the TGI in experiment [1] was 67.1 µM; in experiment [2] it was above 100 µM; in experiment [3], 22 µM; in experiment [4] it was 45 µM; in experiment [5] it was 25.8 µM; in experiment [6], above 100 µM. The values for the TGI in experiment [7] and in experiment [8] were 33.9 µM and above 100 µM, respectively.

With `CC1CCCN(CC(O)CN2CCCc3ccccc32)C1` (configuration not stated), the TGI in experiment [2], in experiment [3], in experiment [4], in experiment [5], in experiment [6] and in experiment [7] was above 100 µM throughout. The TGI in experiment [8] was above 100 µM.

As to `COc1ccc2c(c1OC)-c1c(c3ccc([N+](=O)[O-])cc3c(=O)n1CCCN=[N+]=[N-])C2=O`, the GI50 in experiment [1] is 20.3 µM; in experiment [2], 3.63 µM; in experiment [3], 2.93 µM; in experiment [4], 4.59 µM; in experiment [5] it was 6.2 µM; in experiment [6], 3.62 µM. Moreover, the GI50 in experiment [7] was 3.46 µM; in experiment [8], 4.18 µM. The TGI was above 100 µM in experiment [1]; 22.1 µM in experiment [2]; 38.2 µM in experiment [3]; above 100 µM in experiment [4]; above 100 µM in experiment [5]; above 100 µM in experiment [6]. In addition, the TGI in experiment [7] was 10.6 µM; in experiment [8] it was above 100 µM.

As for `O=C(O)c1ccc(S(=O)(=O)N=Nc2c(O)[nH]c3ccccc23)cc1`, the TGI in experiment [1], in experiment [2], in experiment [3], in experiment [4], in experiment [5] and in experiment [6] was above 100 µM each time. The TGI in experiment [7] and in experiment [8] was above 100 µM in each case.

For the compound `Cc1[nH]nc2c1N=C(c1ccccc1F)c1cc(C#N)ccc1N2`, the GI50 in experiment [1] is 0.672 µM; in experiment [2], 0.326 µM; in experiment [3] it was 0.143 µM; in experiment [4], 3.04 µM; in experiment [5], 0.215 µM; in experiment [6], 4.16 µM. Besides, the TGI in experiment [1] is 8.87 µM; in experiment [2] it was 5.37 µM; in experiment [3], 6.91 µM; in experiment [4], 7.37 µM; in experiment [5], 4.64 µM; in experiment [6] it was 13.9 µM.

For the compound `COc1cc(/C=C2\CC3C4CC=C5C[C@@H](N6CCCC6)CC[C@]5(C)C4CC[C@]3(C)[C@H]2OC(C)=O)ccc1OCCN1CCCCC1` (some centres not stated), the GI50 in experiment [1] is 0.257 µM; in experiment [2] it was 1.91 µM; in experiment [3], 0.275 µM; in experiment [4], 1.44 µM; in experiment [5] it was 1.55 µM; in experiment [6] it was 2.84 µM. For the same compound, the GI50 in experiment [7] was 1.58 µM. Besides, the TGI came to 1.77 µM in experiment [1]; 3.73 µM in experiment [2]; 0.85 µM in experiment [3]; 2.81 µM in experiment [4]; 3.02 µM in experiment [5]; 5.83 µM in experiment [6]. In experiment [7], the TGI was 3 µM.

`O=C(Nc1cccc2cccnc12)c1ccc(N2C(=O)[C@@H]3[C@H](C2=O)[C@@H]2C=C[C@H]3C2)cc1`: the GI50 in experiment [1] is 15.5 µM; in experiment [2], 36.4 µM; in experiment [3], 35.8 µM; in experiment [4] it was 22.4 µM; in experiment [5] it was 16 µM; in experiment [6] it was 41.6 µM. Moreover, the GI50 in experiment [7] was 34.9 µM; in experiment [8] it was 26.2 µM. The TGI in experiment [1] was above 94.3 µM; in experiment [2] it was above 100 µM; in experiment [3] it was above 100 µM; in experiment [4] it was above 86.3 µM; in experiment [5] it was above 100 µM; in experiment [6], above 100 µM. Also, the TGI in experiment [7] and in experiment [8] was above 100 µM in each case.

Take `CCn1c(-c2nonc2N)nc2c(C#CC(C)(C)O)nc(O[C@@H](CN)c3ccccc3)cc21`: the GI50 in experiment [1] was 0.0727 µM; in experiment [2] it was 0.689 µM; in experiment [3], 0.121 µM; in experiment [4], 0.361 µM; in experiment [5] it was 0.0455 µM; in experiment [6], 0.236 µM. Moreover, the GI50 is 0.407 µM in experiment [7] and 0.108 µM in experiment [8]. In addition, the TGI in experiment [1] is 1.12 µM; in experiment [2], 4.73 µM; in experiment [3], 2.61 µM; in experiment [4], 1.02 µM; in experiment [5], 1.15 µM; in experiment [6] it was 3.24 µM. Also, the figures for the TGI in experiment [7] and in experiment [8] were 1.67 µM and 3.7 µM, respectively.

Take `COc1ccc(NC(=O)c2sc3nc(C)c(C(O)c4ccc(OC)cc4)cc3c2N)cc1` (configuration not stated): the GI50 was 5.62 µM in experiment [1]; 2.51 µM in experiment [2]; 0.983 µM in experiment [3]; 0.621 µM in experiment [4]; 1.43 µM in experiment [5]; 1.84 µM in experiment [6]. The values for the GI50 in experiment [7] and in experiment [8] were 1 µM and 0.258 µM, respectively. In addition, the TGI in experiment [1], in experiment [2], in experiment [3], in experiment [4], in experiment [5] and in experiment [6] was above 50 µM throughout. Also, the TGI in experiment [7] and in experiment [8] was above 50 µM each time.

As for `BrC(Br)(Br)c1cnc2ccccc2n1`, the GI50 in experiment [1] is 1.5 µM; in experiment [2], 1.41 µM; in experiment [3] it was 1.1 µM; in experiment [4] it was 2.02 µM; in experiment [5], 1.3 µM; in experiment [6], 3.33 µM. Besides, the GI50 in experiment [7] was 2.05 µM; in experiment [8], 1.75 µM. The TGI in experiment [1] is 3.14 µM; in experiment [2], 2.84 µM; in experiment [3], 2.66 µM; in experiment [4] it was 6.6 µM; in experiment [5], 3.17 µM; in experiment [6] it was 16.1 µM. For the same compound, the TGI in experiment [7] was found to be 6.42 µM; in experiment [8], 4.66 µM.
